According to article PMC7442216 (Journal of medicinal chemistry, 2019):

Tested on: HIV-1 NL4-3 NanoLuc-sec infection of MT4 cells
Experiment: MOA comparison: antiviral activity in the presence or absence of enzastaurin
Format: cell-based
Details: for HIV-1 inhibitory activity in the presence of enzastaurin: enzastaurin 1 μM, 1 at 0.6 nM, 13e at 2 nM

| Compound | HIV-1 inhibitory activity in the presence of enzastaurin | antiviral potency relative to 1 (in this assay) | antagonism of GM's HIV-1 inhibitory activity (enzastaurin at 1 μM, GM at 0.6 nM) |
| --- | --- | --- | --- |
| C=C(C)[C@]12C[C@@H](COC(=O)c3ccccc3)[C@@]34OC5(O[C@@H]1[C@@H]3[C@@H]1O[C@]1(CO)[C@@H](O)[C@@]1(O)[C@H]4[C@H]([C@H](C)[C@@H]1OC(=O)c1ccccc1)[C@H](C)CCCCCC[C@H]5O)O2 [Compound 1, gnidimacrin] | largely abrogated |  |  |
| C=C(C)[C@]12C[C@@H](COC(=O)c3ccccc3)[C@@]34OC5(O[C@@H]1[C@@H]3[C@@H]1O[C@]1(CO)[C@@H](O)[C@@]1(O)[C@H]4[C@H]([C@H](C)[C@@H]1OC(=O)c1ccncc1)[C@H](C)CCCCCC[C@H]5O)O2 [Compound 13e, 3-O-(4-Pyridinylcarbonyl) Stelleramacrin] | able to abrogate | approximately threefold weaker |  |
| Cn1cc(C2=C(c3cn(C4CCN(Cc5ccccn5)CC4)c4ccccc34)C(=O)NC2=O)c2ccccc21 [enzastaurin, reference compound] |  |  | effectively antagonized |
